These results are taken from EP2640377B1, “FGFR1 EXTRACELLULAR DOMAIN COMBINATION THERAPIES” (Five Prime Therapeutics, Inc., priority 2010, dated 2012).

Where two headings read alike, the source gives them in different places.

One data set deals with A549 cells. In words: A549 non-small cell lung cancer (NSCLC) xenograft model: tumor volume and body weight. The conditions noted are these: for Fractional tumor volume (FTV), agent alone: day 32.
The test system of data set [1] is Human non-small cell lung cancer (NSCLC) cell line H1703. In words: H1703 non-small cell lung cancer (NSCLC) xenograft model: tumor volume and body weight. Format: in vivo, SCID mice. The conditions noted are these: day 38. The method, then:
Human non-small cell lung cancer (NSCLC) cell line H1703 was used as the tumor model and was purchased from ATCC (Manassas, VA; Cat. No. CRL-5889).
Docetaxel was purchased from Toronto Research Chemicals (North York, Ontario, Canada; cat. No. D494420) and formulated in H2O containing 5% Tween 80 and 5% glucose. Docetaxel was administered i.p. at 25 mg/kg (equivalent to about 75 mg/m^2 in a human) once every three weeks for two doses. In combination groups, FGFR1-ECD.339-Fc and docetaxel were either given concurrently or sequentially with FGFR1-ECD.339-Fc given one day before docetaxel or vice versa. Human albumin was purchased from Grifols USA (Los Angeles, CA; Cat. No. NDC 61953-0002-1), formulated in PBS at 3 mg/mL and was used as negative control at 300 µg/100 µL/mouse (15 mg/kg). Table 2: Dosing Schedule
The tumor volume was measured by external caliper to determine the greatest longitudinal diameter (length) and the greatest transverse diameter (width). The tumor volume was then calculated using the following formula: Tumorvolume(mm^3) = (length × width^2)/2 [formula]
Table 3. Tumor volume analysis on day 38
Table 4. Analysis of fractional tumor volumea on day 38

Data set [2] relates to Squamous cell lung cancer cell line NCI-H520. The conditions noted are these: for Fractional tumor volume (FTV), agent alone / Tumor growth inhibition (%) / Mean Tumor volume mm^3(±SD): day 49; for Tumor growth inhibition (%): alone or with FGFR1-ECD.339-Fc 15 mg/kg; for Mean Tumor volume mm^3(±SD): alone or with FGFR1-ECD.339-Fc 15 mg/kg i.p. 2x/wk.
Method: Six to eight week old female SCID mice were purchased from Charles River Laboratories (Wilmington, MA) and were acclimated for 1 week before the start of the study. […] The cells were cultured for three to four passages in RPMI+10% FBS + 1% L-glutamine at 37°C in a humidified atmosphere with 5% CO2. When the cultured cells reached 85-90% confluence, cells were harvested and resuspended in cold Ca^2+ and Mg^2+ free PBS containing 50% Matrigel at 3.5 x10^7 cells/ml. The cells were implanted subcutaneously over the right flank of the mice at 3.5x10^6 cells/100µl/mouse. One day after tumor implantation, mice were randomized according to body weight at 10 mice per group. Dosing for all groups began one day post tumor implantation.
FGFR1-ECD.339-Fc was formulated in PBS at 3 mg/ml and administered intraperitoneally (i.p.) at 15 mg/kg (300 µg/100 µl/mouse) twice a week for six weeks. […] In combination groups, FGFR1-ECD.339-Fc and pemetrexed were administered on the same schedule as when given as single agents, and were administered concurrently on days 1, 4, 8, and 11.
The tumor volume and body weight of the mice were monitored twice a week throughout study.
The mice were euthanized by isoflurane inhalation and cervical dislocation.
The tumor volume of each group of mice on day 49 was analyzed by one-way ANOVA followed by Tukey's test.
Where [3] appears, read: FGFR1-ECD.339-Fc 15 mg/kg i.p. twice a week, docetaxel 25 mg/kg i.p. once every three weeks for two doses.
Setting [4] is: pemetrexed 62.5 mg/kg i.p. QD x 5 x 2 cycles.
Setting [5] is: pemetrexed 125 mg/kg i.p. QD x 5 x 2 cycles.
Setting [6] is: pemetrexed 250 mg/kg i.p. (only first five doses given).

For `CC(=O)O[C@@]12CO[C@@H]1C[C@H](O)[C@@]1(C)C(=O)[C@H](O)C3=C(C)[C@@H](OC(=O)[C@H](O)[C@@H](NC(=O)OC(C)(C)C)c4ccccc4)C[C@@](O)([C@@H](OC(=O)c4ccccc4)[C@H]21)C3(C)C` [Docetaxel, 1,7β,10β-trihydroxy-9-oxo-5β,20-epoxytax-11-ene-2α,4,13α-triyl 4-acetate 2-benzoate 13-{(2R,3S)-3-[(tert-butoxycarbonyl)amino]-2-hydroxy-3-phenylpropanoate}], the “Fractional tumor volume (FTV), agent alone” value in the data set with A549 cells (docetaxel 3 mg/kg i.p. twice per week alone) stood at 0.79; in the data set with A549 cells (docetaxel 10 mg/kg i.p. twice per week alone), 0.58; in data set [1] (FGFR1-ECD.339-Fc 15 mg/kg, docetaxel 25 mg/kg, FTV = mean TV treated / mean TV control), 0.25. For the same compound, the “Mean Tumor volume mm^3(±SD)” value in data set [1] (setting [3]) was 209 (±303) mm^3. Also, in data set [1] (setting [3]), the “Tumor growth inhibition (%)” value worked out at 74%.
As to `Nc1nc2[nH]cc(CCc3ccc(C(=O)N[C@@H](CCC(=O)O)C(=O)O)cc3)c2c(=O)[nH]1` [Pemetrexed, (S)-2-[4-[2-(4-amino-2-oxo-3,5,7-triazabicyclo[4.3.0]nona-3,8,10-trien-9-yl)ethyl]benzoyl] aminopentanedioic acid], the figures for the “Fractional tumor volume (FTV), agent alone” value in data set [2] (pemetrexed 62.5 mg/kg alone), in data set [2] (pemetrexed 125 mg/kg alone) and in data set [2] (pemetrexed 250 mg/kg alone) were 0.59, 0.75 and 1.00, respectively. The “Tumor growth inhibition (%)” value in data set [2] (setting [4]) worked out at 40%; in data set [2] (setting [5]), 24%; in data set [2] (setting [6]) it was 1%. Also, the “Mean Tumor volume mm^3(±SD)” value was 544.7 (±341.5) mm^3 in data set [2] (setting [4]), 689.5 (±328.7) mm^3 in data set [2] (setting [5]) and 926.6 (±339.9) mm^3 in data set [2] (setting [6]). For the same compound, the “tumor inhibition over the course of the study” value in data set [2] (highest dose of pemetrexed (250 mg/kg), alone or with FGFR1-ECD.339-Fc) is “did not appear to inhibit tumor growth”.
Regarding `CC[C@]1(O)C[C@H]2CN(CCc3c([nH]c4ccccc34)[C@@](C(=O)OC)(c3cc4c(cc3OC)N(C=O)[C@H]3[C@@](O)(C(=O)OC)[C@H](OC(C)=O)[C@]5(CC)C=CCN6CC[C@]43[C@@H]65)C2)C1` [Vincristine, methyl (1R,9R,10S,11R,12R,19R)-11-(acetyloxy)-12-ethyl-4-[(13S,15S,17S)-17-ethyl-17-hydroxy-13-(methoxycarbonyl)-1,11-diazatetracyclo[13.3.1.0^4,12.0^5,10]nonadeca-4(12),5,7,9-tetraen-13-yl]-8-formyl-10-hydroxy-5-methoxy-8,16-diazapentacyclo[10.6.1.0^1,9.0^2,7.0^16,19]nonadeca-2,4,6,13-tetraene-10-carboxylate], the weight loss entry is “lost weight” in the data set on A549 cells (higher dose of vincristine (1.5 mg/kg), Figure 9C) and “did not lose weight” with A549 cells (lower dose of vincristine (1 mg/kg), data not shown).
